Assays:
Huh7 = assay: Cytotoxicity on human cells, Huh7 (liver); assay type: cell-based; conditions: Huh-7, human cells, exposed 24 h and 48 h, 0.1 to 25 μM
Description: (§1) […] Dosages on Human cells (Huh7, Caco, MDA-MB 231, HCT 116, PC3, NCl, Fibroblast)
(§2) Cytotoxicity: This method is based on an automated imaging analysis. 4.10^3 cells were cultivated on 96-well plates and thus left for 24 hours so that they may bind, be distributed and proliferate.
(§3) These cells were then exposed for 24 h and 48 h to increasing concentrations of the compounds of the invention, from 0.1 to 25 μM in a final volume of 80 μL of culture medium. The cells are then set with a 4% paraformaldehyde solution and the nuclei are colored with Hoechst 3342 and counted according to automated imaging quantification.
(§4) All the cell lines were cultivated in a DMEM or RPMI (Invitrogen) medium. All these media were completed with antibiotics (penicillin-streptomycin)(Lonza) and 10% by volume of foetal calf serum (Invitrogen). The cells were cultivated at 37° C. with 5% of CO2. The treatments with the molecules to be tested were carried out with increasing concentrations. […] The control experiments were also conducted by using suitable dilutions of DMSO (maximum 1% DMSO). Cell viability was determined by measuring the reduction of MTS as described in the article of Ribas J, Boix J. (2004). Cell differentiation caspase inhibition and macromolecular synthesis blockage but not BCL-2 or BCL-XL proteins protect SH-SY5Y cells from apoptosis triggered by two CDK inhibitory drugs. Exp. Cell Res., 295: 9-24.

NCI = assay: Cytotoxicity on human cells, NCI (lung); assay type: cell-based; conditions: exposed 24 h and 48 h, 0.1 to 25 μM
Description: as §1, §2, §3, §4

PC3 = assay: Cytotoxicity on human cells, PC3 (prostate); assay type: cell-based; conditions: PC-3, human cells, exposed 24 h and 48 h, 0.1 to 25 μM
Description: as §1, §2, §3, §4

MDA-MB 231 = assay: Cytotoxicity on human cells, MDA-MB 231 (breast); assay type: cell-based; conditions: MDA-MB-231, human cells, exposed 24 h and 48 h, 0.1 to 25 μM
Description: as §1, §2, §3, §4

fibroblast = assay: Cytotoxicity on human cells, fibroblast; assay type: cell-based; conditions: exposed 24 h and 48 h, 0.1 to 25 μM
Description: as §1, §2, §3, §4

HCT 116 = assay: Cytotoxicity on human cells, HCT 116 (colon); assay type: cell-based; conditions: exposed 24 h and 48 h, 0.1 to 25 μM
Description: as §1, §2, §3, §4

GSK-3αβ = GSK-3αβ kinase inhibition (GS-1 substrate, buffer A); assay type: biochemical; conditions: 15 μM ATP, 30° C., native, pig brain; read-out: IC50 Kinases GSK3
Description: (§5) The activities for inhibiting protein kinases of the compounds of the invention are tested according to the following general procedure:
(§6) Buffer A: 10 mM MgCl2, 1 mM EGTA, 1 mM DTT, 25 mM Tris-HCl pH 7.5 and 50 μg heparin/mL.
(§7) The kinase activities are dosed in buffers A or C, at 30° C., at a final concentration of ATP of 15 μM. The values of the blanks were subtracted and the activities are expressed as a % of the maximum activity, i.e. in the absence of inhibitors. The controls were carried out with suitable dilutions of DMSO.
GSK-3αβ (from pig brain, native) was assayed by using a specific substrate of GSK-3 (GS-1: […]pEDEEE)(Sp represents a phosphorylated serine) (Primot, A., Baratte, B., Gompel, M., Borgne, A., Liabeuf, S., Romette, J. L., Costantini, F. and Meijer, L., 2000. Purification of GSK-3 by affinity chromatography on immobilized axin. Protein Expr. & Purif. 20 (3), 394-404). GS-1 was synthesized by Millegen (Labège, France). Its kinase activity was analyzed in the buffer A, with 1 mg of histone H1/mL, in the presence of 15 μM of [γ-^33P] ATP (3,000 Ci/mmol; 10 mCi/mL) in a final volume of 30 μl. After 30 mins of incubation at 30° C., 25 μl of supernatant aliquots were deposited on 2.5×3 cm pieces of phosphocellulose Whatman P81papier, and after 20 seconds, the filters were washed five times (for at least 5 minutes every time) in a solution of 10 mL of phosphoric acid/liter of water. The wet filters were counted in the presence of 1 mL of ACS scintillator fluid (Amersham).

CDK5 = biological target: T1, CDK5 (Homo sapiens, UniProt Q00535); assay: CDK5 kinase inhibition (histone H1, [γ-33P] ATP, buffer C); assay type: biochemical; conditions: 15 μM ATP, 30° C., recombinant; read-out: IC50 Kinases CDK5
T1 construct: made in house
T1 sequence (Q00535 whole entry): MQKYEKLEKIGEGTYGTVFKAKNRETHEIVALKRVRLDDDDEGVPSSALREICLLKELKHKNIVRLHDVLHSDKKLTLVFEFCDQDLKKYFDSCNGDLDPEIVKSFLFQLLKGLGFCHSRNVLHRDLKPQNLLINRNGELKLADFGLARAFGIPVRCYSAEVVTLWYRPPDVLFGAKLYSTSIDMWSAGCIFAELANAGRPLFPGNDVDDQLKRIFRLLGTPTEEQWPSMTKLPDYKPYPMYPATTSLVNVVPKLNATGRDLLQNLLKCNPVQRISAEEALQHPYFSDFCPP
T1 sequence (Q15078 99-307 partner limits assumed): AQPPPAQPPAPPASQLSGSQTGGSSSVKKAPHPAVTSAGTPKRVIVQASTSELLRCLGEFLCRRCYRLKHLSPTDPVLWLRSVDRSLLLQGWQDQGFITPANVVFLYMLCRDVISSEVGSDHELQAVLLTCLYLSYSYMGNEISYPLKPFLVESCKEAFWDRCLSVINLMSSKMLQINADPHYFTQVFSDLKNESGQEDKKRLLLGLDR
Description: as §5
Buffer C: 60 mM β-glycerophosphate, 15 mM p-nitrophenyl-phosphate, 25 mM Mops (pH 7.2), 5 mM EGTA, 15 mM MgCl2, 1 mM DTT, 1 mM of sodium vanadate
as §7
CDK5 (humane, recombinant) was prepared as described earlier (Leclerc, S.; Garnier, M.; Hoessel, R.; Marko, D.; Bibb, J. A.; Snyder, G. L.; Greengard, P.; Biernat, J.; Mandelkow, E.-M.; Eisenbrand, G.; Meijer, L. Indirubins inhibit glycogen synthase kinase-3β and CDK5/p25, two kinases involved in abnormal tau phosphorylation in Alzheimer's disease—A property common to most CDK inhibitors? J. Biol. Chem. 2001, 276, 251-260; Bach S, Knockaert M, Reinhardt J, Lozach O, Schmitt S, Baratte B et al. (2005). Roscovitine targets, protein kinases and pyridoxal kinase. J. Biol Chem 280: 31208-31219). Its kinase activity was analyzed in the buffer C, with 1 mg of histone H1/mL, in the presence of 15 μM of [γ-^33P] ATP (3,000 Ci/mmol; 10 mCi/mL) in a final volume of 30 μl. After 30 mins of incubation at 30° C., 25 μl of supernatant aliquots were deposited on 2.5×3 cm pieces of phosphocellulose Whatman P81 paper, and after 20 seconds, the filters were washed five times (for at least 5 minutes every time) in a solution of 10 mL phosphoric acid/liter of water. The wet filters were counted in the presence of 1 mL of ACS scintillator fluid (Amersham).

Caco = assay: Cytotoxicity on human cells, Caco (colon); assay type: cell-based; conditions: exposed 24 h and 48 h, 0.1 to 25 μM
Description: as §1, §2, §3, §4

DYRK1A = DYRK1A (Homo sapiens, UniProt Q13627); assay: DYRK1A kinase inhibition (Woodtide substrate, buffer A); assay type: biochemical; conditions: 15 μM ATP, 30° C., recombinant GST fusion; read-out: IC50 Kinases DYRK1A
Description: as §5, §6, §7

Oc1ccccc1-c1cnc2cnc(-c3ccccc3O)nc2c1 [Compound 22, 2,7-Di-(2-hydroxyphenyl)-pyrido[3,2-d]pyrimidine]
IC50 (Huh7): > 25 µM
IC50 (NCI): 2 µM
IC50 (PC3): > 25 µM
IC50 (MDA-MB 231): > 25 µM
IC50 (fibroblast): > 25 µM
IC50 (HCT 116): > 25 µM
IC50 (GSK-3αβ): > 10 µM
IC50 (CDK5): > 10 µM
IC50 (Caco): > 25 µM
IC50 (DYRK1A): > 10 µM
melting point: 239 to 240 °C

N#Cc1ccc(Nc2cnc3cnc(-c4ccc(O)cc4)nc3c2)nc1 [Compound 54, 2-(4-Hydroxyphenyl)-7-(2-(5-cyano)pyridinylamino)-pyrido[3,2-d]pyrimidine]
IC50 (Huh7): > 25 µM
IC50 (NCI): 20 µM
IC50 (PC3): > 25 µM
IC50 (MDA-MB 231): 12 µM
IC50 (fibroblast): > 25 µM
IC50 (HCT 116): > 25 µM
IC50 (GSK-3αβ): 5.5 µM
IC50 (CDK5): 4 µM
IC50 (Caco): > 25 µM
IC50 (DYRK1A): > 10 µM
melting point: > 268 °C

Oc1ccc(-c2ncc3ncc(-c4cccs4)cc3n2)cc1 [Compound 38, 2-(4-Hydroxyphenyl)-7-(2-thiophyl)-pyrido[3,2-d]pyrimidine]
IC50 (Huh7): > 25 µM
IC50 (NCI): 3 µM
IC50 (PC3): 25 µM
IC50 (MDA-MB 231): > 25 µM
IC50 (fibroblast): 2 µM
IC50 (HCT 116): 4 µM
IC50 (GSK-3αβ): > 10 µM
IC50 (CDK5): 0.11 µM
IC50 (Caco): > 25 µM
IC50 (DYRK1A): > 10 µM
melting point: 240 to 242 °C

COc1ccc(-c2cnc3cnc(-c4ccc(O)cc4)nc3c2)cn1 [Compound 32, 2-(4-Hydroxyphenyl)-7-(3-(6-methoxy)-pyridinyl)-pyrido[3,2-d]pyrimidine]
IC50 (Huh7): > 25 µM
IC50 (NCI): 25 µM
IC50 (PC3): > 25 µM
IC50 (MDA-MB 231): 25 µM
IC50 (fibroblast): 10 µM
IC50 (HCT 116): > 25 µM
IC50 (GSK-3αβ): > 10 µM
IC50 (CDK5): 1.2 µM
IC50 (Caco): > 25 µM
IC50 (DYRK1A): > 10 µM
melting point: 246 to 248 °C

OCCNc1nc(NCc2ccccc2)c2ncc(Nc3cnc4ccccc4c3)cc2n1 [Compound 89, 4-Benzylamino-2-(2-hydroxyethylamino)-7-(3-quinolinamino)-pyrido[3,2-d]pyrimidine]
IC50 (Huh7): 3 µM
IC50 (NCI): 2 µM
IC50 (PC3): 3 µM
IC50 (MDA-MB 231): 3 µM
IC50 (fibroblast): 2 µM
IC50 (HCT 116): 0.5 µM
IC50 (Caco): 2 µM
melting point: 154 to 155 °C

OCCNc1nc(NCc2ccccc2)c2ncc(Nc3ncccn3)cc2n1 [Compound 87, 4-Benzylamino-2-(2-hydroxyethylamino)-7-(2-pyrimidinylamino)-pyrido[3,2-d]pyrimidine]
IC50 (Huh7): 7 µM
IC50 (NCI): 6 µM
IC50 (PC3): 15 µM
IC50 (MDA-MB 231): 15 µM
IC50 (fibroblast): 15 µM
IC50 (HCT 116): 6 µM
IC50 (Caco): 8 µM
melting point: 141 to 142 °C

OCCNc1nc(NCc2ccccc2)c2ncc(Nc3ccc4ncccc4c3)cc2n1 [Compound 90, 4-Benzylamino-2-(2-hydroxyethylamino)-7-(6-quinolinamino)-pyrido[3,2-d]pyrimidine]
IC50 (Huh7): 2 µM
IC50 (NCI): 2 µM
IC50 (PC3): 5 µM
IC50 (MDA-MB 231): 4 µM
IC50 (fibroblast): 1.5 µM
IC50 (HCT 116): 1.2 µM
IC50 (Caco): 4 µM
melting point: 203 to 204 °C

COc1cccc(Nc2cnc3c(NCc4ccccc4)nc(NCCO)nc3c2)c1 [Compound 84, 4-Benzylamino-2-(2-hydroxyethylamino)-7-(3-methoxyphenylamino)-pyrido[3,2-d]pyrimidine]
IC50 (Huh7): 3 µM
IC50 (NCI): 3 µM
IC50 (PC3): 5 µM
IC50 (MDA-MB 231): 15 µM
IC50 (fibroblast): 5 µM
IC50 (HCT 116): 5 µM
IC50 (Caco): 4 µM
melting point: 110 to 111 °C

COc1ccc(Nc2cnc3c(NCc4ccccc4)nc(NCCO)nc3c2)cc1 [Compound 83, 4-Benzylamino-2-(2-hydroxyethylamino)-7-(4-methoxyphenylamino)-pyrido[3,2-d]pyrimidine]
IC50 (Huh7): 5 µM
IC50 (NCI): 6 µM
IC50 (PC3): 12 µM
IC50 (MDA-MB 231): 10 µM
IC50 (fibroblast): 15 µM
IC50 (HCT 116): 5 µM
IC50 (Caco): 8 µM
melting point: 126 to 127 °C

Oc1ccc(-c2cnc3cnc(-c4ccc(O)cc4)nc3c2)cc1 [Compound 20, 2,7-Di-(4-hydroxyphenyl)-pyrido[3,2-d]pyrimidine]
IC50 (Huh7): 12 µM
IC50 (NCI): > 25 µM
IC50 (PC3): 25 µM
IC50 (MDA-MB 231): > 25 µM
IC50 (fibroblast): > 25 µM
IC50 (HCT 116): 12 µM
IC50 (GSK-3αβ): 26 µM
IC50 (CDK5): 0.12 µM
IC50 (Caco): 7 µM
IC50 (DYRK1A): 0.93 µM

Oc1ccc(-c2ncc3ncc(-c4ccoc4)cc3n2)cc1 [Compound 36]
IC50 (Huh7): > 25 µM
IC50 (PC3): > 25 µM
IC50 (fibroblast): 20 µM
IC50 (HCT 116): 10 µM
IC50 (DYRK1A): > 10 µM

Source: patent US20130109693A1, “DERIVATIVES OF PYRIDO [3,2-D] PYRIMIDINE, METHODS FOR PREPARATION THEREOF AND THERAPEUTIC USES THEREOF” (UNIVERSITE D'ORLEANS, priority 2010, published 2013)
